33 compounds from US20250136553A1, “ACYLSULFONAMIDE KAT6A INHIBITORS” (Olema Pharmaceuticals, Inc., priority 2023, published 2025) can be followed below.

Each structure is given as a SMILES string.

Sequence of human-KAT6A (MYST domain 507-778 aa) (Q92794 507-778): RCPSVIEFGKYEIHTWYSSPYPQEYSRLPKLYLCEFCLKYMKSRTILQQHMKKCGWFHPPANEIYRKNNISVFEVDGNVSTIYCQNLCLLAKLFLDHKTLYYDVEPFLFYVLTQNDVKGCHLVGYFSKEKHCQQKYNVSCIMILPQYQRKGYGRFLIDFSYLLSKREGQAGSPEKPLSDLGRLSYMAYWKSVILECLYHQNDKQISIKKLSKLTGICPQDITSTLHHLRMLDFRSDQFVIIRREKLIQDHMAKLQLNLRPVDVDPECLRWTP

For the first assay, the target named is human-KAT6A (MYST domain 507-778 aa) (Homo sapiens (Human), UniProt Q92794). In words: KAT6A biochemical assay (TR-FRET). As to conditions: @ 1 μM; reported where IC50 could not be determined; read-out: Percent inhibition at specific concentration (KAT6A). In short, it runs like this:
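KAT6A MYST domain preincubated with compound 30 min at 25° C, then reacted 60 min at 25° C with 200 nM biotin-H4 peptide and 600 nM acetyl-CoA (final). Europium anti-acetyl-lysine/streptavidin-APC TR-FRET read (Ex 340, Em 615/665 nm); % inhibition from 665/615 ratio, IC50 by sigmoidal fit.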
In general terms: Time-resolved FRET reads energy transfer from a long-lived donor to a nearby acceptor.
`COc1ccc(C(C)(C)C)cc1S(=O)(=O)NC(=O)c1ccc(Cn2cccn2)n(C)c1=O` [Compound 267, 6-((1H-Pyrazol-1-yl)methyl)-N-((5-(tert-butyl)-2-methoxyphenyl)sulfonyl)-1-methyl-2-oxo-1,2-dihydropyridine-3-carboxamide]: the inhibition at 1 µM came to 45%.

Staying with this assay, now noted: TR-FRET; histone H4 peptide 200 nM, acetyl-CoA 600 nM; read-out: KAT6A IC50.
Consider `COc1cc(C(=O)NS(=O)(=O)c2ccc(C(C)(C)C)cc2OC)ccc1Cn1cccn1` [Compound 8, 4-((1H-pyrazol-1-yl)methyl)-N-((4-(tert-butyl)-2-methoxyphenyl)sulfonyl)-3-methoxybenzamide], for which the IC50 turned out to be 0.017 µM.
On the same count and under the same terms, to `COc1ccc(C(C)(C)CO)cc1[S@](=N)(=O)NC(=O)c1ccc(Cn2cccn2)c(OC)n1` [Compound 290a, (R)-5-((1H-pyrazol-1-yl)methyl)-N-(5-(1-hydroxy-2-methylpropan-2-yl)-2-methoxyphenylsulfonimidoyl)-6-methoxypicolinamide] belongs 0.014 µM.
On the same count and under the same terms, to `COc1cccc(OC)c1S(=O)(=O)NC(=O)c1ccc(Cn2cccn2)c(C)n1` [Compound 209, 5-((1H-pyrazol-1-yl)methyl)-N-((2,6-dimethoxyphenyl)sulfonyl)-6-methylpicolinamide] belongs 0.071 µM; to `COc1cccc(OCC(F)(F)F)c1S(=O)(=O)NC(=O)c1ccc(Cn2cccn2)c(OC)n1` [Compound 227, 5-((1H-pyrazol-1-yl)methyl)-6-methoxy-N-((2-methoxy-6-(2,2,2-trifluoroethoxy)phenyl)sulfonyl)picolinamide], 0.011 µM.
Consider `COc1cc(C)cc(OC)c1[S@@](=N)(=O)NC(=O)c1ccc(Cn2cccn2)c(OC)n1` [Compound 306b, (S)-5-((1H-pyrazol-1-yl)methyl)-N-(2,6-dimethoxy-4-methylphenylsulfonimidoyl)-6-methoxypicolinamide], for which the 50% inhibitory concentration (IC50) amounted to 0.28 µM.
Same read-out and setting: to `COc1cc(C(=O)NS(=O)(=O)c2c(OC)cccc2OCC(F)(F)F)ccc1Cn1cccn1` [Compound 68, 4-((1H-pyrazol-1-yl)methyl)-3-methoxy-N-((2-methoxy-6-(2,2,2-trifluoroethoxy)phenyl)sulfonyl)benzamide] belongs 0.023 µM; to `COc1cccc(F)c1[S@@](=N)(=O)NC(=O)c1ccc(Cn2cccn2)c(OC)n1` [Compound 305b, (S)-5-((1H-pyrazol-1-yl)methyl)-N-(2-fluoro-6-methoxyphenylsulfonimidoyl)-6-methoxypicolinamide], 0.318 µM.
Still for that read-out and setting: the result for `COc1cc(C(=O)NS(=O)(=O)c2cc(O)ccc2OC)ccc1Cn1cccn1` [Compound 39, 4-((1H-pyrazol-1-yl)methyl)-N-((5-hydroxy-2-methoxyphenyl)sulfonyl)-3-methoxybenzamide] reads 0.024 µM; that for `COc1ccc(C2CC2)c(OC)c1S(=O)(=O)NC(=O)c1ccc(Cn2cccn2)c(OC)n1` [Compound 223, 5-((1H-pyrazol-1-yl)methyl)-N-((3-cyclopropyl-2,6-dimethoxyphenyl)sulfonyl)-6-methoxypicolinamide], 0.017 µM; that for `COc1cc(C(=O)NS(=O)(=O)c2c(OC)cccc2OC)ccc1COc1nccs1` [Compound 58, N-((2,6-dimethoxyphenyl)sulfonyl)-3-methoxy-4-((thiazol-2-yloxy)methyl)benzamide], 0.177 µM.
Still for that read-out and setting: the result for `CCOc1cccc(OC)c1[S@](=N)(=O)NC(=O)c1ccc(Cn2cccn2)c(OC)n1` [Compound 294a, (R)-5-((1H-pyrazol-1-yl)methyl)-N-(2-ethoxy-6-methoxyphenylsulfonimidoyl)-6-methoxypicolinamide] reads 0.271 µM; that for `COc1cc(C(=O)N[S@@](=N)(=O)c2c(OC)cccc2OC)ccc1Cn1cccn1` [Compound 295a, (R)-4-((1H-pyrazol-1-yl)methyl)-N-(2,6-dimethoxyphenylsulfonimidoyl)-3-methoxybenzamide], 0.016 µM; that for `COc1ccc2c(c1S(=O)(=O)NC(=O)c1ccc(Cn3cccn3)c(OC)n1)CCCC2` [Compound 217, 5-((1H-pyrazol-1-yl)methyl)-6-methoxy-N-((2-methoxy-5,6,7,8-tetrahydronaphthalen-1-yl)sulfonyl)picolinamide], 0.011 µM.
On to `COc1ccc(C(C)(C)C)cc1S(=O)(=O)NC(=O)c1ccc(Cn2cccn2)c(C(F)(F)F)c1` [Compound 25, 4-((1H-pyrazol-1-yl)methyl)-N-((5-(tert-butyl)-2-methoxyphenyl)sulfonyl)-3-(trifluoromethyl)benzamide], for which the IC50 stood at 0.01 µM.
The same measure, in the same setting: the result for `COc1cc(C(=O)NS(=O)(=O)c2c(OC)ccc3c2CCCC3)ccc1Cn1cccn1` [Compound 57, 4-((1H-pyrazol-1-yl)methyl)-3-methoxy-N-((2-methoxy-5,6,7,8-tetrahydronaphthalen-1-yl)sulfonyl)benzamide] reads 0.011 µM; that for `CCc1ccc(OC)c(S(=O)(=O)NC(=O)c2ccc(Cn3cccn3)c(OC)n2)c1OC` [Compound 225, 5-((1H-pyrazol-1-yl)methyl)-N-((3-ethyl-2,6-dimethoxyphenyl)sulfonyl)-6-methoxypicolinamide], 0.01 µM.
Regarding `COc1cc(OC)c(S(=O)(=O)NC(=O)c2ncc(Cn3cccn3)c(OC)n2)c(OC)c1` [Compound 272, 5-((1H-pyrazol-1-yl)methyl)-4-methoxy-N-((2,4,6-trimethoxyphenyl)sulfonyl)pyrimidine-2-carboxamide], the 50% inhibitory concentration (IC50) came out at 0.033 µM.
With `COc1cc(C(=O)NS(=O)(=O)c2c(OC)cccc2OC)ccc1Oc1nccs1` [Compound 59, N-((2,6-dimethoxyphenyl)sulfonyl)-3-methoxy-4-(thiazol-2-yloxy)benzamide], the IC50 amounted to 0.033 µM.
Still for that read-out and setting: to `COc1cc(C)cc(OC)c1[S@](=N)(=O)NC(=O)c1ccc(Cn2cccn2)c(OC)n1` [Compound 306a, (R)-5-((1H-pyrazol-1-yl)methyl)-N-(2,6-dimethoxy-4-methylphenylsulfonimidoyl)-6-methoxypicolinamide] belongs 0.012 µM; to `COc1cc(Cn2cccn2)ccc1C(=O)NS(=O)(=O)c1cc2c(cc1OC)CCC2` [Compound 5, 4-((1H-pyrazol-1-yl)methyl)-2-methoxy-N-((6-methoxy-2,3-dihydro-1H-inden-5-yl)sulfonyl)benzamide], 0.178 µM; to `[2H]C([2H])([2H])Oc1cc(OC([2H])([2H])[2H])c(S(=O)(=O)NC(=O)c2ccc(Cn3cccn3)c(OC)n2)c(OC([2H])([2H])[2H])c1` [Compound 270, 5-((1H-pyrazol-1-yl)methyl)-6-methoxy-N-((2,4,6-tris(methoxy-d3)phenyl)sulfonyl)picolinamide], 0.006 µM.
As for `COc1cccc(OC2CCC2)c1S(=O)(=O)NC(=O)c1ccc(Cn2cccn2)c(OC)n1` [Compound 219, 5-((1H-pyrazol-1-yl)methyl)-N-((2-cyclobutoxy-6-methoxyphenyl)sulfonyl)-6-methoxypicolinamide], the half-inhibitory concentration (IC50) stood at 0.009 µM.
On the same count and under the same terms, to `COc1cc(Cn2cccn2)ccc1C(=O)NS(=O)(=O)c1ccc(-n2cccn2)cc1OC` [Compound 10, 4-((1H-pyrazol-1-yl)methyl)-2-methoxy-N-((2-methoxy-4-(1H-pyrazol-1-yl)phenyl)sulfonyl)benzamide] belongs 1.48 µM.
On the same count and under the same terms, the result for `COc1ccc(C(F)(F)F)cc1S(=O)(=O)NC(=O)c1ccc(Cn2cccn2)c(OC)n1` [Compound 207, 5-((1H-pyrazol-1-yl)methyl)-6-methoxy-N-((2-methoxy-5-(trifluoromethyl)phenyl)sulfonyl)picolinamide] reads 0.01 µM; that for `COc1ccc(Cl)c(OC)c1S(=O)(=O)NC(=O)c1ccc(Cn2cccn2)c(OC)n1` [Compound 241, 5-((1H-pyrazol-1-yl)methyl)-N-((3-chloro-2,6-dimethoxyphenyl)sulfonyl)-6-methoxypicolinamide], 0.01 µM.
The same measure, in the same setting: the result for `COc1ccc(C)c(OC)c1S(=O)(=O)NC(=O)c1ccc(Cn2cccn2)c(OC)n1` [Compound 222, 5-((1H-pyrazol-1-yl)methyl)-N-((2,6-dimethoxy-3-methylphenyl)sulfonyl)-6-methoxypicolinamide] reads 0.018 µM; that for `COc1cc(OC)c(S(=N)(=O)NC(=O)c2ccc(Cn3cccn3)c(OC)c2)c(OC)c1` (racemic) [Compound 299, 4-((1H-pyrazol-1-yl)methyl)-3-methoxy-N-(2,4,6-trimethoxyphenylsulfonimidoyl)benzamide], 0.025 µM; that for `COc1cc(C(=O)NS(=O)(=O)c2cc(C(F)(F)F)ccc2OC)ccc1Cn1cccn1` [Compound 32, 4-((1H-pyrazol-1-yl)methyl)-3-methoxy-N-((2-methoxy-5-(trifluoromethyl)phenyl)sulfonyl)benzamide], 0.016 µM.
For `COc1cc(Cn2cccn2)ccc1C(=O)NS(=O)(=O)c1cc2c(cc1OC)CCCC2` [Compound 15, 4-((1H-pyrazol-1-yl)methyl)-2-methoxy-N-((3-methoxy-5,6,7,8-tetrahydronaphthalen-2-yl)sulfonyl)benzamide], the IC50 was determined as 0.576 µM.
Still for that read-out and setting: the result for `COc1nc(C(=O)N[S@@](=N)(=O)c2ccccc2F)ccc1Cn1cccn1` [Compound 307a, (R)-5-((1H-pyrazol-1-yl)methyl)-N-(2-fluorophenylsulfonimidoyl)-6-methoxypicolinamide] reads 0.108 µM.
On the same count and under the same terms, the result for `COc1cc(C(=O)NS(=O)(=O)c2cc(Br)ccc2OC)ccc1Cn1cccn1` [Compound 24, 4-((1H-pyrazol-1-yl)methyl)-N-((5-bromo-2-methoxyphenyl)sulfonyl)-3-methoxybenzamide] reads 0.012 µM; that for `COc1cc(C(=O)NS(=O)(=O)c2cc(-n3cccn3)ccc2OC)ccc1Cn1cccn1` [Compound 19, 4-((1H-pyrazol-1-yl)methyl)-3-methoxy-N-((2-methoxy-5-(1H-pyrazol-1-yl)phenyl)sulfonyl)benzamide], 0.042 µM.

Usually IC50 stands for the concentration at which inhibition is half-maximal.
